CC(=O)[C@H]1CC[C@H]2[C@@H]3CCC4=CC(=O)CC[C@]4(C)[C@H]3CC[C@]12C
solubility (mole fraction)
Conditions	278.15 K	283.15 K	288.15 K	293.15 K	298.15 K	303.15 K	308.15 K	313.15 K	318.15 K	323.15 K
in 1,4-dioxane	–	–	0.0614	0.073	0.0855	0.1	0.117	0.136	0.156	0.179
in THF	0.0598	0.0701	0.0816	0.0943	0.109	0.125	0.143	0.163	0.185	0.209
in acetone	0.0143	0.0187	0.0244	0.0311	0.0397	0.0494	0.0617	0.076	0.094	0.116
in acetonitrile	0.00716	0.0101	0.0131	0.0178	0.0235	0.0305	0.0396	0.0508	0.0646	0.0816
in ethanol	0.00337	0.00455	0.00623	0.00859	0.0112	0.0146	0.0192	0.0251	0.0319	0.0411
in ethyl acetate	0.0142	0.0175	0.0215	0.0266	0.0321	0.039	0.0471	0.0566	0.0671	0.0802
in isopropanol	0.00314	0.00446	0.00615	0.00841	0.0115	0.0153	0.0203	0.0269	0.0349	0.0455
in methanol	0.00232	0.00335	0.00472	0.00676	0.0092	0.0127	0.0173	0.0234	0.0308	0.0412
in n-butanol	0.00706	0.00947	0.0127	0.0164	0.0211	0.0268	0.0346	0.0439	0.0551	0.0682
in n-heptane	0.000112	0.00018	0.000281	0.000425	0.000617	0.000914	0.00135	0.00198	0.00284	0.00402
in n-propanol	0.00527	0.0071	0.00969	0.0131	0.0171	0.0227	0.0294	0.0378	0.0485	0.0614
in toluene	0.0797	0.0907	0.102	0.115	0.13	0.146	0.162	0.182	0.203	0.225

Reference: BigSolDB 2.1
